From PubChem BioAssay (NCI) come the findings set out here.

Test systems include HOP-92 NSCLC; DU-145 prostate; LOX IMVI melanoma; SR leukemia; IGROV1 ovarian; K-562 leukemia; PC-3 prostate; A498 renal; OVCAR-8 ovarian; OVCAR-5 ovarian.
What all share (assay): inhibition of tumour cell growth, NCI panel, 48 h

Several values for one entry are separate records, joined by “and”; a condition that tells them apart may be missing. Identical values can stand only once.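 Cultured in 96-well plates, cells were exposed to test compound for 48 hours across five concentrations. Here, GI50 denotes the concentration required for 50% inhibition of growth. TGI marks complete inhibition of growth.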

Consider `Cc1cc2c(cc1Cl)SC1=NN(C)C(N(C)C)N1S2(=O)=O` (stereo not given), for which the GI50 in the test on HOP-92 NSCLC is 55 µM; in the test on DU-145 prostate it was over 100 µM; in the test on LOX IMVI melanoma it was over 100 µM; with SR leukemia, over 100 µM; in the test on IGROV1 ovarian, over 100 µM; in the test on K-562 leukemia, over 100 µM. Besides, the GI50 in the test with PC-3 prostate was over 100 µM; with A498 renal it was 63.4 µM; in the test on OVCAR-8 ovarian it was over 100 µM; in the test with OVCAR-5 ovarian, over 100 µM. Besides, the TGI in the test on HOP-92 NSCLC, with DU-145 prostate, with LOX IMVI melanoma, in the test with SR leukemia, in the test on IGROV1 ovarian and with K-562 leukemia was over 100 µM each time. In addition, the TGI with PC-3 prostate, in the test with A498 renal, with OVCAR-8 ovarian and with OVCAR-5 ovarian was over 100 µM in each case.

Take `COc1cc(C(=O)Nc2cc3c(cc2Oc2cc(C)cc(C)c2)C(=O)N(C)[C@@H](CC(=O)N(C)O)C(=O)N3)c(Br)c(OC)c1OC`: the GI50 in the test on HOP-92 NSCLC, in the test on DU-145 prostate, in the test with LOX IMVI melanoma, in the test with SR leukemia, in the test with IGROV1 ovarian and in the test with K-562 leukemia was under 0.00333 µM throughout. For the same molecule, the GI50 with PC-3 prostate, in the test with A498 renal, in the test on OVCAR-8 ovarian and with OVCAR-5 ovarian was under 0.00333 µM each time. Besides, the TGI with HOP-92 NSCLC was under 0.00333 µM; with DU-145 prostate it was 0.00428 µM; with LOX IMVI melanoma, under 0.00333 µM; in the test on SR leukemia, 0.00904 µM; with IGROV1 ovarian, 0.0104 µM; in the test on K-562 leukemia it was 0.00872 µM. Further, the TGI in the test with PC-3 prostate amounted to 0.00358 µM; in the test on A498 renal, 0.00573 µM; in the test on OVCAR-8 ovarian, 0.0181 µM; in the test on OVCAR-5 ovarian, 0.00751 µM.

With `Nc1ccc(C(=O)CC(N)C(=O)O)cc1O` (stereo not given), the TGI with HOP-92 NSCLC, in the test on DU-145 prostate, in the test with LOX IMVI melanoma, in the test with SR leukemia, with IGROV1 ovarian and in the test with K-562 leukemia was over 100 µM each time. In addition, the TGI in the test with PC-3 prostate, in the test on A498 renal, with OVCAR-8 ovarian and in the test on OVCAR-5 ovarian was over 100 µM in each case.

As for `COc1ccc(N2C(=O)[C@H]3CC(C)c4c([nH]c5ccccc45)[C@H]3C2=O)cc1` (stereo not given in full), the TGI in the test on HOP-92 NSCLC was 23.3 µM; in the test with DU-145 prostate, over 45.8 µM; in the test with LOX IMVI melanoma it was 63.8 µM; with SR leukemia, over 100 µM; in the test with IGROV1 ovarian, 85.9 µM; in the test on K-562 leukemia, 20 µM. For the same molecule, the TGI with PC-3 prostate is 23.6 µM; in the test on A498 renal it was 77.7 µM; in the test with OVCAR-8 ovarian, 55.9 µM; in the test with OVCAR-5 ovarian, over 85.6 µM.

With `COc1ccc(-c2ccc(-c3ccc(C(=N)N)cn3)o2)cc1`, the GI50 is 1.31 µM with HOP-92 NSCLC; 11.3 µM in the test on DU-145 prostate; 2.58 µM in the test on LOX IMVI melanoma; 3.11 µM in the test with SR leukemia; 5.29 µM with IGROV1 ovarian; 3.97 µM with K-562 leukemia. The GI50 in the test on PC-3 prostate is 4.18 µM; in the test with A498 renal, 12.8 µM; with OVCAR-8 ovarian, 11.3 µM; with OVCAR-5 ovarian, 10.9 µM. The TGI with HOP-92 NSCLC was determined as 6.4 µM; with DU-145 prostate it was 24.7 µM; in the test with LOX IMVI melanoma it was 6.86 µM; in the test on SR leukemia it was 10.3 µM; in the test on IGROV1 ovarian it was 19 µM; in the test with K-562 leukemia, 13.5 µM. The TGI in the test with PC-3 prostate is 18 µM; in the test with A498 renal, 26.3 µM; with OVCAR-8 ovarian it was 31.2 µM; in the test on OVCAR-5 ovarian, 23.7 µM.

Turning to `COc1ccc2[nH]c(O)c(C(=Nc3ccc(N(C)C(=O)CN4CCN(C)CC4)cc3)c3ccccc3)c2c1`, the GI50 is 0.436 µM in the test on HOP-92 NSCLC; 2.66 µM in the test with DU-145 prostate; 1.02 µM in the test with LOX IMVI melanoma; 0.23 µM in the test on SR leukemia; 1.36 µM in the test on IGROV1 ovarian; 0.609 µM with K-562 leukemia. The GI50 with PC-3 prostate was 3.52 µM; with A498 renal it was 1.64 µM; in the test with OVCAR-8 ovarian it was 3.24 µM; with OVCAR-5 ovarian, 2.68 µM. Besides, the TGI came out at 5.55 µM in the test with HOP-92 NSCLC; 11.8 µM in the test on DU-145 prostate; 2.19 µM with LOX IMVI melanoma; 1.45 µM with SR leukemia; 10.1 µM with IGROV1 ovarian; 13.8 µM in the test on K-562 leukemia. The TGI is 17.5 µM with PC-3 prostate, 3.45 µM in the test with A498 renal, 14 µM in the test on OVCAR-8 ovarian and 16.4 µM in the test with OVCAR-5 ovarian.

Consider `C=CC(=O)Nc1cc2c(Nc3ccc(F)c(Cl)c3)ncnc2cc1OCCCN1CCOCC1`, for which the GI50 in the test with HOP-92 NSCLC is 0.534 µM and 0.551 µM; in the test with DU-145 prostate, 0.159 µM and 0.741 µM; in the test on LOX IMVI melanoma, 1.29 µM and 1.69 µM; in the test with SR leukemia, 1.72 µM and 2.3 µM; in the test on IGROV1 ovarian it was 0.993 µM and 0.284 µM; in the test on K-562 leukemia it was 1.91 µM and 2.84 µM. In addition, the GI50 is 2.76 µM and 4.33 µM with PC-3 prostate; 0.357 µM and 0.681 µM in the test on A498 renal; 1.77 µM and 2.54 µM in the test on OVCAR-8 ovarian; 0.879 µM and 5.82 µM in the test with OVCAR-5 ovarian. Besides, the TGI in the test with HOP-92 NSCLC was 2.49 µM and 5.9 µM; in the test with DU-145 prostate, 12.2 µM and > 10 µM; in the test on LOX IMVI melanoma it was 2.7 µM and 3.32 µM; with SR leukemia, > 21 µM and 6.51 µM; in the test on IGROV1 ovarian, 3.26 µM and 2.88 µM; with K-562 leukemia, 14.5 µM and > 10 µM. The TGI in the test on PC-3 prostate is 9.85 µM and > 10 µM; in the test on A498 renal, 2.51 µM and 5.15 µM; in the test with OVCAR-8 ovarian, 6.67 µM and > 10 µM; in the test on OVCAR-5 ovarian, 16.3 µM and > 10 µM.

As for `CCn1c(-c2nonc2N)nc2c(C#CC(C)(C)O)nc(OCCNC)cc21`, the GI50 was 4.59 µM in the test on HOP-92 NSCLC; 8.53 µM in the test with DU-145 prostate; 6.88 µM in the test with LOX IMVI melanoma; 9.56 µM with SR leukemia; 8.13 µM with IGROV1 ovarian; 10.3 µM in the test on K-562 leukemia. Moreover, the GI50 in the test with PC-3 prostate was 6.88 µM; in the test with A498 renal it was 1.35 µM; in the test on OVCAR-8 ovarian it was 7.81 µM; in the test on OVCAR-5 ovarian it was 7.99 µM. In addition, the TGI in the test on HOP-92 NSCLC was 14.5 µM; with DU-145 prostate it was over 25 µM; with LOX IMVI melanoma, over 25 µM; in the test with SR leukemia it was over 21.8 µM; with IGROV1 ovarian it was over 25 µM; in the test on K-562 leukemia it was over 25 µM. For the same molecule, the TGI is over 25 µM in the test with PC-3 prostate, 9.43 µM in the test on A498 renal, over 25 µM with OVCAR-8 ovarian and 24.9 µM in the test on OVCAR-5 ovarian.

Turning to `COc1ccc(C2=NN(C=O)C(c3cccc(Nc4ccnc5cc(Cl)ccc45)c3)C2)cc1` (stereo not given), the GI50 was 3.41 µM with HOP-92 NSCLC; 3.62 µM in the test with DU-145 prostate; 2.52 µM in the test with LOX IMVI melanoma; 0.583 µM in the test on SR leukemia; 3.71 µM in the test with IGROV1 ovarian; 0.511 µM in the test with K-562 leukemia. In addition, the GI50 was 2.87 µM with PC-3 prostate, 1.35 µM in the test on A498 renal, 3.29 µM in the test with OVCAR-8 ovarian and 11.3 µM in the test with OVCAR-5 ovarian. For the same molecule, the TGI with HOP-92 NSCLC is over 100 µM; with DU-145 prostate, 89.3 µM; with LOX IMVI melanoma, 12.5 µM; in the test on SR leukemia it was 5.23 µM; in the test with IGROV1 ovarian, over 100 µM; with K-562 leukemia, 11.3 µM. In addition, the TGI was over 100 µM in the test with PC-3 prostate, 9.26 µM in the test with A498 renal, 27.6 µM in the test with OVCAR-8 ovarian and over 100 µM with OVCAR-5 ovarian.

With `COc1cc(-c2cn(-c3ccc(Cl)c(Cl)c3)c(=O)n2C(C)=O)cc(OC)c1OC`, the GI50 is 3.42 µM with HOP-92 NSCLC; 5.32 µM in the test with DU-145 prostate; 13.7 µM in the test on LOX IMVI melanoma; 14.8 µM in the test on SR leukemia; 5.34 µM in the test on IGROV1 ovarian; 16.1 µM with K-562 leukemia. Also, the GI50 was 4.3 µM in the test with PC-3 prostate, 16.6 µM in the test on A498 renal, 8.49 µM in the test with OVCAR-8 ovarian and 13 µM with OVCAR-5 ovarian. In addition, the TGI in the test with HOP-92 NSCLC was 16.8 µM; with DU-145 prostate, 18.2 µM; in the test with LOX IMVI melanoma it was 28 µM; in the test with SR leukemia, 34.5 µM; in the test with IGROV1 ovarian, 17.6 µM; in the test with K-562 leukemia, over 100 µM. In addition, the TGI in the test with PC-3 prostate amounted to 17.8 µM; in the test on A498 renal it was 32.1 µM; in the test with OVCAR-8 ovarian, 31.9 µM; in the test on OVCAR-5 ovarian, 27.3 µM.
